Where two headings read alike, the source gives them in different places.
Tests used:
[1] = system: Tau phosphorylation at Ser396 (pSer396), SH-SY5Y cells; test: Tau phosphorylation at Ser396 (pSer396) in SH-SY5Y cells, ELISA/western blot; type: cell-based, human; details: Homo sapiens;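 note: cell lysates probed for reduced Tau pSer396 via ELISA (colorimetric) or western blot (chemiluminescence), both with one shared pSer396 antibody, EC50 for lowering phosphorylation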
[2] = system: LL29 cells (primary human fibroblasts derived from IPF patients), α-smooth muscle actin; test: Inhibition of fibrotic process: αSMA in TGF-β1-treated primary human fibroblasts from IPF patients (LL29 cells); type: cell-based; details: Homo sapiens, Fibroblast; for EC50: 96 h, % αSMA-positive LL29 cells, TGF-β1 20 ng/mL, 4 days; for inhibition at 10 µM: read-out: percent inhibition at 10 μM
In short: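 IPF-patient lung fibroblasts (LL29) were stimulated with TGF-β1 (20 ng/mL) in 1% FBS medium with compound (11-point 1:2 series, 0.1% DMSO) for 4 days at 37 °C. Fixed cells were immunostained for αSMA and imaged, excluding SYTOX-positive dead cells. The % αSMA-positive cells was normalized to TGF-β1/DMSO control wells.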

[3] = SH-SY5Y cells, overnight (16-18 h), read-out: pSer396 Tau EC50
[4] = SH-SY5Y, read-out: pSer396 Tau EC50 (μM)

SMILES | EC50 [1, 3] | EC50 [2] | EC50 [1, 4] | inhibition at 10 µM [2]
Cc1nnc(-c2ccc3cnc(NC(=O)[C@H]4CC[C@H](N(C)C)CC4)cc3c2)s1 [Compound 22, trans-4-(Dimethylamino)-N-(6-(5-methyl-1,3,4-thiadiazol-2-yl)isoquinolin-3-yl)cyclohexane-1-carboxamide] | 0.126 µM | 602 nM |  | 
Cc1cn2c(n1)CN(C(=O)Nc1cc3cc(-c4nnc(C)s4)ccc3cn1)CC2 [Compound 58, 2-Methyl-N-(6-(5-methyl-1,3,4-thiadiazol-2-yl)isoquinolin-3-yl)-5,6-dihydroimidazo[1,2-a]pyrazine-7(8H)-carboxamide] | 0.058 µM | 788 nM |  | 
CN1CC2CCC(C1)N2C(=O)Nc1cc2cc(-c3cnn(C)c3)ccc2cn1 [Compound 61, 3-Methyl-N-(6-(1-methyl-1H-pyrazol-4-yl)isoquinolin-3-yl)-3,8-diazabicyclo[3.2.1]octane-8-carboxamide] |  | 2770 nM | > 10 µM | 
C[C@@H]1CN(C(=O)Nc2cc3cc(-c4cnn(C)c4)ccc3cn2)CCN1C [Compound 67, (R)-3,4-Dimethyl-N-(6-(1-methyl-1H-pyrazol-4-yl)isoquinolin-3-yl) piperazine-1-carboxamide] | > 10 µM | > 10000 nM |  | 5.2%
COCCN[C@H]1CC[C@H](C(=O)Nc2cc3cc(-c4cnc(C)o4)ccc3cn2)CC1 [Compound 106, trans-4-((2-Methoxyethyl)amino)-N-(6-(2-methyloxazol-5-yl)isoquinolin-3-yl)cyclohexane-1-carboxamide] | 0.323 µM | 707 nM |  | 
Cc1nnc(-c2ccc3cnc(NC(=O)N4C5CCC4CN(C)C5)cc3c2)s1 [Compound 108, 3-Methyl-N-(6-(5-methyl-1,3,4-thiadiazol-2-yl)isoquinolin-3-yl)-3,8-diazabicyclo[3.2.1]octane-8-carboxamide] |  | > 10000 nM | > 10 µM | 18.2%
Cc1nnc(-c2ccc3cnc(NC(=O)N4[C@@H]5CC[C@H]4C[C@H](NCCC(F)(F)F)C5)cc3c2)s1 [Compound 153, (1R,5S)-N-(6-(5-Methyl-1,3,4-thiadiazol-2-yl)isoquinolin-3-yl)-3-exo-((3,3,3-trifluoropropyl)amino)-8-azabicyclo[3.2.1]octane-8-carboxamide] |  | > 10000 nM | > 10 µM | 9%
Cc1ncc(-c2ccc3cnc(NC(=O)[C@H]4CC[C@H](NCCF)CC4)cc3c2)o1 [Compound 155, trans-4-((2-fluoroethyl)amino)-N-(6-(2-methyloxazol-5-yl)isoquinolin-3-yl) cyclohexane-1-carboxamide] | 0.384 µM | 1060 nM |  | 
Cc1nnc(-c2ccc3cnc(NC(=O)N4[C@@H]5CC[C@H]4C[C@@H](NCCC(F)(F)F)C5)cc3c2)s1 [Compound 195, (1R,5S)-cis-N-(6-(5-methyl-1,3,4-thiadiazol-2-yl)isoquinolin-3-yl)-3-((3,3,3-trifluoropropyl)amino)-8-azabicyclo[3.2.1]octane-8-carboxamide] |  | > 10000 nM | > 10 µM | 23.4%
COCCN[C@H]1CC[C@H](C(=O)Nc2cc3cc(-c4cnn(C)c4)ccc3cn2)CC1 [Compound 196, trans-4-((2-Methoxyethyl)amino)-N-(6-(1-methyl-1H-pyrazol-4-yl)isoquinolin-3-yl)cyclohexane-1-carboxamide] |  | 184 nM |  | 
Cc1nnc(-c2cc(F)c3cnc(NC(=O)N(C)C4CCN(C)CC4)cc3c2)s1 [Compound 227, 3-(8-Fluoro-6-(5-methyl-1,3,4-thiadiazol-2-yl)isoquinolin-3-yl)-1-methyl-1-(1-methylpiperidin-4-yl)urea] | 4.5 µM |  |  | 
CN1CCC(N(C)C(=O)Nc2cc3cc(-c4cn(C)nn4)cc(F)c3cn2)CC1 [Compound 228, 3-(8-Fluoro-6-(1-methyl-1H-1,2,3-triazol-4-yl)isoquinolin-3-yl)-1-methyl-1-(1-methylpiperidin-4-yl)urea] | 6.4 µM | 9980 nM |  | 
CN1CCC(N(C)C(=O)Nc2cc3cc(-c4cnn(C)c4)cc(F)c3cn2)CC1 [Compound 230, 3-(8-Fluoro-6-(1-methyl-1H-pyrazol-4-yl)isoquinolin-3-yl)-1-methyl-1-(1-methylpiperidin-4-yl)urea] |  | 6330 nM |  | 
Cc1ncc(-c2ccc3cnc(NC(=O)N(C)C4CCN(C)CC4)cc3c2)o1 [Compound 231, 1-Methyl-3-(6-(2-methyloxazol-5-yl)isoquinolin-3-yl)-1-(1-methylpiperidin-4-yl)urea] |  | 2950 nM |  | 
